Tests used:
[1] = system: cuts through the endermal skin layer; test: FibroPOSS treatment of cuts in a human arm; assay type: in vivo
Method: Based upon the differentiation from Example 1, a series of in vivo FibroPOSS examinations was made using [(isoOctylSiO1.5)4(isoOctyl(OH)SiO1.0)3]Σ7 and [([…])8]Σ8. In a human arm a series of six cuts were made through the endermal skin layer.
The top two cuts were treated with 100% [(isoOctylSiO1.5)4(isoOctyl(OH)SiO1.0)3]Σ7(SO1455) and [(isoOctylSiO1.5)8]Σ8 (MS0805).
The middle two cuts had 50/50 SO1450+bactin antibiotic and 50/50 MS0805+bactin antibiotic.
The bottom left cuts had 100% bactin antibiotic and the bottom right cut had no treatment.

[2] = Dispersion of POSS compounds in personal care and cosmetic products; assay type: physicochemical; conditions: approximately 5% POSS by weight
Method: In light of the observed cellular differentiation and modulation promoted by nanostructured chemicals, a series of POSS, POS and POMS were added to conventional personal care and cosmetic products. […] A summary of the products and finding is listed below.
Each sample prepared consisted of approximately 5% of POSS by weight and was inspected visually and by biometric techniques for the dispersion of the POSS compound. The products in which the POSS compounds could be dispersed without being felt are listed under the POSS compounds studied.

[3] = system: fibroblasts; test: Fibroblast adhesion on POSS-coated titanium; assay type: cell-based; conditions: from Table 2 findings
Method: (§1) [(RSiO1.5)4(Rl(OH)SiO1.0)3]Σ7 (1 g) was dissolved in dichlormethane and sprayed onto metallic titanium samples. The samples were then dried at 110° C. for 2 hours.
(§2) Experimental samples with 50% surface coverage of POSS were exposed to osteoblasts and fibroblasts cultured in Dulbecco's modified eagle medium (DMEM), supplemented with 10% fetal bovine serum (FBS) and 1% penicillin streptomycin (P/S), under standard cell culture conditions (sterile chamber maintained at 37° C. and a humidified environment: 5% CO2/95% air). The stock solutions were supplied by HyClone.
(§3) For this purpose, osteoblasts, and fibroblasts were separately seeded (10,000 cells cm^2) onto the experimental titanium substrate, and were allowed to adhere in standard cell culture conditions for 48 hours. After the prescribed time period, substrates were rinsed three times using phosphate-buffered saline (PBS) to remove non-adherent cells. The adhered cells were fixed with formaldehyde (Fisher), stained with Hoechst 33 258 dye (Sigma), and counted using fluorescence microscopy (365 nm excitation and 400 nm emission wavelengths). The findings in Table 2 indicate a clear differentiation in binding a cellular modulation relative to the type of R group present on the cage.
(§4) All experiments were run in triplicate, and repeated three different times.

[4] = system: bone; test: Bone formation in vitro (OsteoPOSS); assay type: cell-based; conditions: FIG. 6
[5] = system: osteoblasts; test: Osteoblast adhesion on POSS-coated titanium; assay type: cell-based; conditions: from Table 2 findings
Method: as §1, §2, §3, §4

[6] = system: rat calvaria bone defect; test: POSS-bone samples implanted in vivo into rat calvaria as a bone defect; conditions: eight POSS-bone samples 5 mm in length; examined after one month

Molecule | Bleeding of cut after treatment [1] | Clotting of cut after treatment [1] | Observation on product after POSS addition ([2]; Dial Antibacterial Hand Soap) | Observation on product after POSS addition ([2]; Isoplus Styling Gel) | Observation on product after POSS addition ([2]; Ivory Hand Soap) | Observation on product after POSS addition ([2]; Right Guard Deodorant) | Observation on product after POSS addition ([2]; Suave Shampoo) | Fibroblast binding preference by R group on the cage [3] | Bone formation in vitro [4] | Osteoblast binding preference by R group on the cage [5] | Appearance of bone implantation site [6]
[(isoOctylSiO1.5)4(isoOctyl(OH)SiO1.0)3]Σ7 [SO1455] | did not show any bleeding | nor was visible clotting observed | remained clear | became thicker | remained clear | became thicker | remained clear | fibroplasts preferred |  |  | 
O[Si]1(c2ccccc2)O[Si]2(c3ccccc3)O[Si](O)(c3ccccc3)O[Si]3(c4ccccc4)O[Si](O)(c4ccccc4)O[Si](c4ccccc4)(O1)O[Si](c1ccccc1)(O2)O3 (stereo not shown) [[(phenylSiO1.5)4(phenyl(OH)SiO1.0)3]Σ7] |  |  |  |  |  |  |  |  | form bone in vitro | osteoblast exhibited a preference | indistinguishable from normal rat bone
[(isoOctylSiO1.5)8]Σ8 [MS0805] | did not show any bleeding | nor was visible clotting observed |  |  |  |  |  |  |  |  | 

Source: patent US7572872B2, “Biomimetic materials comprising polyhedral oligomeric silsesquioxanes” (priority 2005, dated 2009)
